Data reported in US8088889B2, “Teneurin c-terminal associated peptides (TCAP) and uses thereof” (priority 2002, dated 2012).
“Also recorded” adds a separate entry of the source. Ends that are not written are not given here.

Experiments:
rats = test: Acoustic startle response after TCAP-1 injection; format: in vivo, rat
Source text: Male Wistar rats (250-275 g), were surgically implanted with cannulae (23 gauge) bilaterally into the basolateral nuclei of the amydala (AP −2.8, ML +/−5.0, DV −7.2 mm, from bregma). One week later, the animals were habituated to the acoustic startle reflex (ASR) chambers (MED Associates, grid rod cage measuring 7.5″×3.6″×4.2″), consisting of 25 trials of 120 dB stimuli presented randomly with an inter-stimulus interval of 55-65 seconds, duration of 30 msecs and frequency of 5000 Hz. The same stimulus conditions were used for test days, which consisted of a 25 trial baseline, injection with mouse TCAP-1 (with amidation signal)[SEQ. ID. NO. 40] or vehicle (0.25 μl/side, flow rate 0.5 μl/min), and testing for a further 60 trials post-drug. Each rat received vehicle treatment on the first test day then TCAP-1 (e.g. mouse TCAP-1) in a random and counter balanced fashion in subsequent test days, spaced 48 h apart. On the final test day, all rats again received vehicle treatment. Following histological analysis of cannulae placements, the data of eight rats was retained for statistical analysis.
From the data, rats were divided into high and low anxiety groups depending upon their treatment/baseline ratio for the vehicle. Animals that scored less than one were considered low anxiety, those scoring more than one were considered high anxiety. There were four animals in each anxiety group.

Gn11 cells [1] = test: cAMP accumulation in Gn11 immortalized neurons (Example 12); format: cell-based, mouse; details: for cAMP accumulation at 1 nM (in words): FIG. 25A/B
Description: (§1) Gn11 immortalized neurons were cultured as previously reported (Tellam et al., 1998) Direct cAMP measurements were performed with the nonacetylated version of a commercial kit (Assay Designs, Ann Arbor, Mich.). After starved by serum-free DMEM for 1 hr and replaced with fresh DMEM without serum, cells were treated for 15 min with TCAP, urocortin or vehicle±CRFR1 antagonist PD171729 in the continued presence of forskolin (1_M) and IBMX (100_M. Protein assays: Total protein was determined using the BCA protein assay method (Pierce Co). MTT Assays: Gn11 cells were seeded into 96-well plates and cultured in full serum DMEM until the cells were 30% confluent. Vehicle, 1 nM, 10 nM or 100 nM TCAP-1 were added into each group (n=8). (FIG. 25A) The MTT assay (Sigma Chemicals) was performed at 0, 6, 12, 24 and 48 hours. Flow Cytometry: DNA content of the Gn11 cells was quantified by staining with propridium iodide and analyzed on a FACSCAN flow cytometer (Beckman Instruments).

Gn11 cells [2] = test: Total protein, BCA protein assay, Gn11 cells; format: cell-based, mouse; details: 1, 10 and 100 nM, after 120 minutes
Description: as §1

Gn11 cells [3] = test: MTT assay, Gn11 cells; format: cell-based, mouse; details: 48 hours
Description: as §1

Gn11 cells [4] = test: Flow cytometry DNA content analysis, Gn11 cells; format: cell-based, mouse; details: after 24 hours
Description: as §1

N38 hypothalamic cells = test: Microarray gene expression in N38 hypothalamic cells; format: cell-based, mouse; details: 1 nM
Description: Total RNA (TRNA) was isolated from 3 independent treated and untreated N38 hypothalamic cell cultures, pooled (to reduce the noise), utilizing Trizol Reagent (GIBCO/BRL) following the manufacturer's protocol. The quality of total RNA was assessed using an Agilent 2100 Bioanalyzer (version A.02.01S1232, Agilent Technologies). Only RNA with the OD ratio of 1.99-2.0 at 260/280 was used.
Hybridizations were performed on the Mouse MU74Av2 GeneChip Set (Affymetrix, Santa Clara, Calif.). Samples were prepared for hybridization according to Affymetrix instructions. Briefly, a primer encoding the T7 RNA polymerase promoter linked to oligo-dT17 was used to prime double-stranded cDNA synthesis from each mRNA sample using Superscript II RNase H^− reverse transcriptase (Life Technologies, Rockville, Md.). Each purified (Qiaquick kit, Qiagen) double-stranded cDNA was in vitro transcribed using T7 RNA polymerase (T7 kit; Enzo), incorporating biotin-UTP and biotin-CTP (Enzo Biochemicals, New York, N.Y.) into the cRNAs, followed by purification using RNEasy (Qiagen) and quantitated by measuring absorption at 260 nm/280 nm. Samples were fragmented and hybridized to the Chip for 16 h at 45° C. and scanned (GeneArray scanner, Affymetrix). MicroArray Suite Version 5 (MASv5; Affymetrix) was used to scale intensities across the Genechips to 150 fluorescence units, and to determine expression values for each gene on the chip. The expression value for each gene was determined by calculating the average of differences (perfect match intensity minus mismatch intensity) of the probe pairs in use for the gene.
Gene analysis software: Data analysis was performed using two independent softwares, GeneChip and GeneSpring. To identify differentially expressed transcripts, pairwise comparison analyses were carried out with MicroArray Suite Version 5 MicroArray Suite Version 5 (MASv5; Affymetrix). This approach, which is based on the Mann-Whitney pairwise comparison test, allows the ranking of results by concordance, as well as the calculation of significance (P value) of each identified change in gene expression. Statistically significant genes (P<0.05) were selected for further analysis. Moreover, statistically significant changes in mean expression values were determined by importing the data from MASv5 into GeneSpring 5 (Silicon Genetics, Redwood City, Calif.). A stepwise process was followed, first with normalizations. A per-chip followed by a per-gene normalization in order to facilitate direct comparison of biological differences. Next, a second method of filter using Affymetrix data and p value with cut-off of P<0.005 generated 4,841 genes which were used for subsequent analysis utilizing Hierarchical Clustering, k-means, Self Organization Map (SOM) utilizing GeneSpring 5.0.
RNAs isolated from treated and untreated cells were analyzed on oligonucleotide arrays representing 12,884 mouse genes (Affymetrix, http://www.affymetrix.com). Standard filtering (p<0.005) and hierarchical clustering algorithm (average linage method: GeneSpring software—Silicon Genetics) identified significant changes in the expression of 4, 841/12,885 genes with 166 genes showing 1.5 fold down-regulation and 35 genes up-regulation in the TCAP-1-treated cells compared to the untreated cells. […] A G-protein coupled receptor-related signal transduction pathway is indicated by the regulation of genes, CREM, AKAP8, AKAP95 and PDE6A. […] The upregulation in inducible nitric oxide (INOS), a intracellular voltage-gated chloride channel (CLCN3) and the serotonin transporter (SLC6A4) may reflect the down stream actions of cAMP-mediated signal cascade and indicates the potential for TCAP to be involved in neuronal signaling systems. A role in interneuron communication by TCAP is also indicated by the modulation of genes associated with the regulation of vesicle trafficking. […]

Gn11 cells [5] = test: cAMP assay in Gn11 cells (Example 7, I); format: cell-based, mouse; details: 10^-6 M
Description: (§2) Medium and peptide was removed and the cells were lysed using 350 uL of a 0.1 M HCL 0.1% Triton X-100 solution. […] All reactions were done in triplicates. Wells were set up for blanks, non-specific binding, total activity (TA), zero binding, five standards, and 12 samples. […] The plate was allowed to shake overnight. The following morning, the wells were rinsed three times with a 10 times diluted wash buffer solution. 50 uL of conjugate was added to the TA wells and 200 uL of p-Npp substrate was added to each well. The plate was covered again and incubated at room temp for one hour. At this point, 50 uL of stop solution was added to all wells and the absorbance was read at 405 nm using a Spectramax spectrophotometer. Three levels of controls were utlized: A blank tube which provides a measure of any reactivity between p-Npp substrate and IgG coated wells.; TA: measure of activity of alkaline phosphotase in conjugate, if any; NSB: measure of binding of conjugate to plate or to antibody; Bo: measure of binding conjugate to antibody (no sample and conjugate competition).

Gn11 cells [6] = test: cGMP assay in Gn11 cells (Example 7, I); format: cell-based, mouse; details: 10^-6 M
Description: as §2

[7] = micro injected into the basolateral amygdala, 3, 30, 300 pmoles
[8] = 16 hours, relative to untreated control
[9] = treated compared to untreated cells

Which results are given for “TCAP-1: synthetic mouse teneurin-1 C-terminal associated peptide, SEQ. ID. NO: 37 or 38, with amidation signal (QQLLGTGRVQGYDGYFVLSVEQYLELSDSANNIHFMRQSEIGRR-NH2)”?
acoustic startle response (rats; administration into the lateral ventricle or amygdala of rats): normalized the acoustic startle response; relation of effect on startle response to baseline startle response (rats; amygdala-injected, FIG. 24): inversely proportional to the baseline startle response; startle magnitude, animals with high treatment-to-baseline ratio (>1) (rats; [7]): significant (p<0.05) decrease; startle magnitude, animals with low treatment-to-baseline ratio (<1) (rats; [7]): significant (p, 0.05) and does dependent increase; increase of cAMP levels over the vehicle-treated cells (Gn11 cells [1]; 1 nM, 15 minutes): 45%; cAMP accumulation at 1 nM (in words) (Gn11 cells [1]; 1 nM): increased cAMP; cAMP accumulation at 10 nM (in words) (Gn11 cells [1]; 10 nM, FIG. 25A): without effect; decrease of cAMP accumulation from control cells (Gn11 cells [1]; 100 nM, 15 minutes): 40%; cAMP accumulation at 100 nM (in words) (Gn11 cells [1]; 100 nM, FIG. 25A): decreased (p<0.05) cAMP; total protein concentration (Gn11 cells [2]): significant increase; also recorded: stimulated protein synthesis; MTT activity (mitochondrial activity) at 1 nM (Gn11 cells [3]; 1 nM): significant (p<0.05) increase; also recorded: increased MTT activity; MTT activity (mitochondrial activity) at 100 nM (Gn11 cells [3]; 100 nM): decrease; also recorded: decreased (p<0.05) MTT activity; incidence of G1 phase at 1 nM (Gn11 cells [4]; 1 nM): reduced (p<0.05) the incidence of G1 phase; incidence of G1 phase at 100 nM (Gn11 cells [4]; 100 nM): increased (p<0.05) G1 phase; Fold change AKAP8 (A kinase anchor protein 8) (N38 hypothalamic cells; [8]): 1.58 fold; Fold change AKAP95 (A kinase anchor protein 95) (N38 hypothalamic cells; [8]): 0.60 fold; Fold change ALK3 (Bone morphogenic protein receptor) (N38 hypothalamic cells; [8]): 0.60 fold; Fold change AP4S1 (Adaptor related protein complex) (N38 hypothalamic cells; [8]): 1.52 fold; Fold change ARF1 (ADP ribosylation factor 1) (N38 hypothalamic cells; [8]): 0.63 fold; Fold change BARK1 (β adrenergic receptor kinase 1) (N38 hypothalamic cells; [8]): 0.61 fold; Fold change BMP4 (Bone morphogenic protein-4) (N38 hypothalamic cells; [8]): 0.52 fold; Fold change CAII (Casein kinase II) (N38 hypothalamic cells; [8]): 0.61 fold; Fold change CAMIII (Calmodulin III) (N38 hypothalamic cells; [8]): 0.53 fold; Fold change CD95 (Fas antigen) (N38 hypothalamic cells; [8]): 0.61 fold; Fold change CLCN3 (Chloride channel protein 3) (N38 hypothalamic cells; [8]): 1.66 fold; Fold change CLM2-B (Cytohesin-2) (N38 hypothalamic cells; [8]): 0.63 fold; Fold change CRD-BP (CRD-binding protein) (N38 hypothalamic cells; [8]): 0.59 fold; Fold change CREMβ1 (cAMP-responsive element modulator) (N38 hypothalamic cells; [8]): 1.61 fold; Fold change DIP1/2 (DAB2 interacting protein) (N38 hypothalamic cells; [8]): 0.68 fold; Fold change ERK1 (Mitogen activated protein kinase) (N38 hypothalamic cells; [8]): 0.64 fold; Fold change FNBX (Ferredoxin-NADP reductase) (N38 hypothalamic cells; [8]): 1.61 fold; Fold change GAS5 (Growth arrest specific transcript) (N38 hypothalamic cells; [8]): 0.46 fold; Fold change GBP3 (Guanylate binding protein) (N38 hypothalamic cells; [8]): 0.63 fold; Fold change GDAP10 (Ganglioside induced diff. protein 10) (N38 hypothalamic cells; [8]): 1.62 fold; Fold change GP25L2 (gp25L brings cargo forward from ER) (N38 hypothalamic cells; [8]): 1.53 fold; Fold change GR (Glucocorticoid receptor) (N38 hypothalamic cells; [8]): 0.66 fold; Fold change IL1R (Interleukin 1 receptor) (N38 hypothalamic cells; [8]): 0.60 fold; Fold change INI1B (Integrase interacting protein 1B) (N38 hypothalamic cells; [8]): 0.48 fold; Fold change INOS (Inducible nitric oxide synthetase) (N38 hypothalamic cells; [8]): 1.50 fold; Fold change MKI67 (Cell cycle protein regulator) (N38 hypothalamic cells; [8]): 1.70 fold; Fold change MMP1 (Matrix metalloproteinase 1) (N38 hypothalamic cells; [8]): 0.55 fold; Fold change MMP10 (Matrix metalloproteinase 10) (N38 hypothalamic cells; [8]): 0.59 fold; Fold change MOP3 (Circadian rhythm regulator) (N38 hypothalamic cells; [8]): 1.57 fold; Fold change P202 (202 interferon activatable protein) (N38 hypothalamic cells; [8]): 0.61 fold; Fold change P204 (Interferon activatable protein) (N38 hypothalamic cells; [8]): 1.85 fold; Fold change PCDHγ (protocadherin γ) (N38 hypothalamic cells; [8]): 0.42 fold; Fold change PDE6A (cGMP Phosphodiesterase α) (N38 hypothalamic cells; [8]): 1.68 fold; Fold change PPAN (Peter Pan homologue) (N38 hypothalamic cells; [8]): 0.62 fold; Fold change PTK7 (Receptor protein tyrosine kinase) (N38 hypothalamic cells; [8]): 1.53 fold; Fold change RAB10 (Ras oncogene homologue) (N38 hypothalamic cells; [8]): 1.62 fold; Fold change SDPR (Serum deprivation response protein) (N38 hypothalamic cells; [8]): 0.57 fold; Fold change SLC6A4 (Serotonin transporter) (N38 hypothalamic cells; [8]): 1.53 fold; Fold change SSG1 (Steroid sensitive gene 1) (N38 hypothalamic cells; [8]): 0.62 fold; Fold change ST7 (Suppressor of tumourigenicity) (N38 hypothalamic cells; [8]): 1.97 fold; Fold change TTF-1IP (TTF-1 interacting peptide) (N38 hypothalamic cells; [8]): 0.50 fold; Fold change YIPID (Rab-mediated membrane transport) (N38 hypothalamic cells; [8]): 1.88 fold; number of genes showing 1.5 fold down-regulation (N38 hypothalamic cells; [9]): 166 genes; number of genes showing up-regulation (N38 hypothalamic cells; [9]): 35 genes

With “mouse urocortin: CRF family peptide compared with mouse TCAP-1 in Gn11 cells (DDPPLSIDLTFHLLRTLLELARTQSQRERAEQNRIIFDSV; ends and bridges not checked) [reference compound]” as the substance, how does the “cAMP accumulation at 1 nM (in words)” value (Gn11 cells [1]; 1 nM) read?
Its value is “increased cAMP accumulation”.

Which results are given for “rat urocortin: CRF family peptide used for the purpose of a positive control (DDPPLSIDLTFHLLRTLLELARTQSQRERAEQNRIIFDSV; ends and bridges not checked; UniProt P55090 81-120, looked up) [reference compound]”?
cAMP accumulation, % of the vehicle-treated cells (Gn11 cells [5]): 89.2±6.3%; cGMP accumulation, % of the control cells (Gn11 cells [6]): 50.0±8.5%; cGMP accumulation (in words) (Gn11 cells [6]; FIG. 16B): significant (p<0.05) decrease
